Measurements reported in patent US20220235008A1, “PLEUROMULIN 7-CHLORO-1-CYCLOPROPYL-6-FLUORO-1,4-DIHYDRO-4-OXOQUINOLINE-3-CARBOXYLIC ACID ESTER WITH ANTIBACTERIAL ACTIVITY AND A METHOD OF PREPARING THE SAME” (SHAANXI UNIVERSITY OF SCIENCE AND TECHNOLOGY, priority 2021, published 2022).

Assays:
Type in all cases: cell-based
[1] = tested on: multi-resistant Staphylococcus aureus 206 (MRSA-206); experiment: paper diffusion method drug sensitivity test, MRSA-206; details: 30 μg/tablet; for Zone of inhibition, MRSA-206: paper 6.35 mm diameter, LB plate, 37° C., 24 h, >17 mm sensitive, 15 mm-16 mm intermediary, <14 mm drug resistance; for inhibitory effect (in words) on multi-drug resistant Staphylococcus aureus 206: paper diffusion, summary of FIGS. 1-3 and Table 1
Procedure: (§1) The antimicrobial efficacy was determined by a paper diffusion method drug sensitivity test.
(§2) Experimental strains: multi-resistant Staphylococcus aureus 206 (MRSA-206), multi-resistant Staphylococcus aureus 575 (MRSA-575), multi-resistant Staphylococcus aureus 596 (MRSA-596). The experimental strain was identified by Huashan Hospital Affiliated to Fudan University (Institute of Antibiotic of Fudan University).
(§3) Drug sensitive paper: The drug sensitive paper was a special drug sensitive paper with a diameter of 6.35 mm and a water absorption of 0.02 mL. The control drug was vancomycin (30 μg/tablet); the test drugs were pleuromulin (30 μg/tablet), 7-chloro-1-cyclopropyl-6-fluoro-1,4-dihydro-4-oxoquinoline-3-carboxylic acid (30 μg/tablet) and pleuromulin 7-chloro-1-cyclopropyl-6-fluoro-1,4-dihydro-4-oxoquinoline-3-carboxylic acid ester (30 μg/tablet).
(§4) Reagents: LB agar medium, LA broth medium, 0.5% DMSO solution.
(§5) The experimental strains were inoculated in non-selective medium and placed in air at 37° C. for 24 h. A single colony that grows well and inoculate it into broth medium was incubate at 35° C.±2° C. for 6 hours, and LA broth medium was used to calibrate the concentration of the bacterial solution to 0.5 Mie turbidimetric tube (1.5×10^8 CFU/mL). A bacterial suspension was obtained.
(§6) LB dry powder was weighed, sterilized at 103.4 Kpa, 121.3° C. high-pressure steam for 15 min, and then placed it in a 40° C.-50° C. water bath. A sterile empty plate (inner diameter 9 cm) was placed on the surface of the ultra-clean table water table, and […] to the plate. The thickness of each plate was 3 mm to 4 mm. After the plate was cooled at room temperature, it was stored in the refrigerator at 2° C.-8° C. A sterile cotton swab was used to dip the bacterial solution and to evenly coat the surface of the LB plate 3 times. After inoculation of the bacterial suspension, the LB plate was dried at room temperature for 3 min to 5 min. Sterile forceps were used to closely attach the antibacterial drug paper to the dish. The dish was put upside down and placed in a 37° C. incubator for 24 h. The results were observed by measuring the diameter. Taking 0.5% DMSO solution as a negative control, the antibacterial activity is expressed by the diameter of the inhibition zone. The inhibition zone >17 mm, sensitive; the inhibition zone of 15 mm-16 mm, intermediary; the inhibition zone <14 mm, drug resistance.

[2] = tested on: multi-resistant Staphylococcus aureus 575 (MRSA-575); experiment: paper diffusion method drug sensitivity test, MRSA-575; details: 30 μg/tablet; for Zone of inhibition, MRSA-575: paper 6.35 mm diameter, LB plate, 37° C., 24 h, >17 mm sensitive, 15 mm-16 mm intermediary, <14 mm drug resistance; for inhibitory effect (in words) on multi-drug resistant Staphylococcus aureus 575: paper diffusion, summary of FIGS. 1-3 and Table 1
Procedure: as §1, §2, §3, §4, §5, §6

[3] = tested on: multi-resistant Staphylococcus aureus 596 (MRSA-596); experiment: paper diffusion method drug sensitivity test, MRSA-596; details: 30 μg/tablet; for Zone of inhibition, MRSA-596: paper 6.35 mm diameter, LB plate, 37° C., 24 h, >17 mm sensitive, 15 mm-16 mm intermediary, <14 mm drug resistance; for inhibitory effect (in words) on multi-drug resistant Staphylococcus aureus 596: paper diffusion, summary of FIGS. 1-3 and Table 1
Procedure: as §1, §2, §3, §4, §5, §6

SMILES	Zone of inhibition, MRSA-206 [1]	inhibitory effect (in words) on multi-drug resistant Staphylococcus aureus 206 [1]	Zone of inhibition, MRSA-575 [2]	inhibitory effect (in words) on multi-drug resistant Staphylococcus aureus 575 [2]	Zone of inhibition, MRSA-596 [3]	inhibitory effect (in words) on multi-drug resistant Staphylococcus aureus 596 [3]
C=C[C@]1(C)C[C@@H](OC(=O)COC(=O)C2CN(C3CC3)c3cc(Cl)c(F)cc3C2=O)[C@]2(C)CC[C@@H](C)[C@@]3(CCC(=O)[C@@H]23)[C@@H](C)[C@@H]1O (stereo partly drawn) [2-(((3aS,4R,5S,6S,8R,9R,9aR,12R)-5-hydroxy-4,6,9,12-tetramethyl-1-oxo-6-vinyldecahydro-3a, 9-propanocyclopenta[8]annulen-8-yl)oxy)-2-oxoethyl-7-chloro-1-cyclopropyl-6-fluoro-4-oxo-1,2,3,4-tetrahydroquinoline-3-carboxylate]	16 mm	strong inhibitory effects	12 mm	strong inhibitory effects	25 mm	strong inhibitory effects
O=C(O)c1cn(C2CC2)c2cc(Cl)c(F)cc2c1=O [7-Chloro-1-cyclopropyl-6-fluoro-1,4-dihydro-4-oxoquinoline-3-carboxylic acid]	0 mm	no inhibitory effect	0 mm	no inhibitory effect	0 mm	no inhibitory effect
C=C[C@]1(C)C[C@@H](OC(=O)CO)[C@]2(C)[C@H](C)CC[C@]3(CCC(=O)[C@H]32)[C@@H](C)[C@@H]1O [Pleuromulin]	0 mm	no inhibitory effect	0 mm	no inhibitory effect	0 mm	no inhibitory effect
CN[C@H](CC(C)C)C(=O)N[C@H]1C(=O)N[C@@H](CC(N)=O)C(=O)N[C@H]2C(=O)N[C@H]3C(=O)N[C@H](C(=O)N[C@H](C(=O)O)c4cc(O)cc(O)c4-c4cc3ccc4O)[C@H](O)c3ccc(c(Cl)c3)Oc3cc2cc(c3O[C@@H]2O[C@H](CO)[C@@H](O)[C@H](O)[C@H]2O[C@H]2C[C@](C)(N)[C@H](O)[C@H](C)O2)Oc2ccc(cc2Cl)[C@H]1O [Vancomycin]	15 mm		17 mm		23 mm	
